Literature values in US20140328945A1, “METHOD FOR STABILIZING AN ELECTROCHEMICALLY GENERATED SANITIZING SOLUTION HAVING A PREDETERMINED LEVEL OF FREE AVAILABLE CHLORINE AND pH” (Aquaxo, Inc., priority 2013, published 2014).

Assays:
E. coli [1] = settings: 2.6 ppm, dilute bacterial suspensions, in about 5 minutes
E. coli [2] = system: E. coli
Escherichia coli = settings: E. coli exposed to Hypochlorous Acid

OCl [Hypochlorous Acid]
growth inhibition (E. coli [1]): 100%
concentration required for 100% kill in 5 minutes (S. clysvnteriae): 0.05 ppm
concentration required for 100% kill in 5 minutes (S. typhosa): 0.06 ppm
concentration required for 100% kill in 5 minutes (E. coli [2]): 0.03 ppm
concentration required for 100% kill in 5 minutes (A. aerogenes): 0.08 ppm
time to lose viability (Escherichia coli): less than 100 ms
